According to US10766928B2, “Targeted conformationally-constrained kinked endosomal disrupting peptides” (priority 2012, dated 2020):
Values after ≈ are worked out from the molar mass of the structure shown. Where two headings read alike, the source gives them in different places. Values belong to the compound of their own block, whether it stands above or below them. Non-standard residues stand in square brackets, D forms with d. Residues, ends and D or L forms follow the SMILES beside them. *: point of attachment. Pentanoyl(5-NH-cholesteryl) = CC(C)CCC[C@@H](C)[C@H]1CC[C@H]2[C@@H]3CC=C4C[C@@H](NCCCCC(=O)*)CC[C@]4(C)[C@H]3CC[C@]12C; Aib = CC(C)(N)C(=O)O; Ahx = NCCCCCC(=O)O; βAla = NCCC(=O)O

Key:
[1] = system: endosomes of Jurkat lymphocytes; experiment: Endosome disruption in Jurkat lymphocytes: release of carboxyfluorescein from disulfide probe Compound 2, flow cytometry; conditions: for Efficacy (% of max. 1): % change in cellular fluorescence relative to maximal response of Compound 1 (100%); for Efficacy (% of max. 1) / Efficacy (% of 1): Jurkat; for Efficacy (% of 1): % of the effect of compound 1, calculated span of dose-response curve, ± standard deviation; for Endosome disruption activity (in words): Jurkat endosome disruption assay
Method: (§1) The effects of the compounds of the invention on human Juikat leukemia cells were evaluated using flow cytometry-based assays of potency, efficacy, and toxicity. […] Analysis of flow cytometry data by non-linear regression was used to determine IC50 values for potency with the efficacy expressed as a percentage. […] Dose-dependent effects on cellular viability after 48 h at 37° C. in culture were also measured by flow cytometry.
(§2) The # represents the compound number in accordance with Tables A, B, and C. Concentrations of compound stock solutions were determined by absorbance measurements at 280 nm. Efficacy was determined as % change in cellular fluorescence relative to the maximal response of Compound 1, defined as 100%. Potencies and efficacies in Jurkat lymphocytes were measured by flow cytometry after treatment of cells with the compounds listed and the fluorescent probe Compound 2 (2.5 μM) for 14 hours. Toxicity to this cell line was determined by flow cytometry analysis of light scattering and counterstaining with PI after treatment for 48 h at 37° C. in culture. […] N.D., not determined.
Cells were treated with fluorescent molecular probe Compound 2 (2.5 μM) and endosome disruptors for 14 hours at 37° C. Enhanced cellular fluorescence resulting from release of the pH-sensitive fluorophore Compound 3 into the cytoplasm was quantified by flow cytometry.
Natural amino acids are represented by single letter codes. Codes for non-standard elements are as follows: Ch1: (3β-Cholest-5-en-3-yl-ammonio)pentanoyl; Ch2: (Cholester-3-yl)oxy-βAla-βAla; X: ε-Ahx; U: Aib; PB: Pacific Blue fluorophore. O: 3-(2-(2-(2-aminoethoxy)ethoxy)ethoxy)propanyl.

[2] = system: Jurkat lymphocytes; conditions: 48 h
Method: as §1, §2

[3] = Thermodynamic solubility in PBS (pH 7.4); assay type: physicochemical; conditions: phosphate buffered saline
From the text: Values in parentheses represent 95% confidence intervals. N.D., not determined.
Measurements represent duplicate or more replicates, with active peptides subjected to multiple replicates. ND: not determined. The peptide was non-toxic and soluble in cell culture medium at this concentration.

[4] = pH 7.4, Table 3, PBS pH 7.4, 24 h at 22° C., read-out: Solubility
[5] = read-out: Potency, Table 2, EC50 ± standard deviation, Jurkat lymphocytes, disulfide-linked fluorescent probe (2.5 μM), 14 h

Compound: CC(C)CCC[C@@H](C)[C@H]1CC[C@H]2[C@@H]3CC=C4C[C@@H](NCCCCC(=O)NCCC(=O)N[C@@H](CCC(=O)O)C(=O)N[C@@H](CCC(=O)O)C(=O)NCCCCCC(=O)N[C@@H](C)C(=O)N[C@@H](C)C(=O)N[C@@H](C)C(=O)N[C@@H](Cc5c[nH]c6ccccc56)C(=O)N[C@@H](Cc5c[nH]c6ccccc56)C(=O)N[C@@H](C)C(=O)N[C@@H](Cc5ccc(O)cc5)C(=O)N[C@@H](Cc5c[nH]c6ccccc56)C(=O)N5CCC[C@H]5C(=O)N5CCC[C@H]5C(=O)N[C@H](C(=O)N[C@@H](C)C(N)=O)C(C)C)CC[C@]4(C)[C@H]3CC[C@]12C [Compound 7, R = BEEXAAAWWAYWPPVA-CONH2] ({Pentanoyl(5-NH-cholesteryl)-βAla}-EE[Ahx]AAAWWAYWPPVA-NH2)
- EC50 ([1]; 14 h): 1 µM
- IC50 [2]: 16 µM

Compound: CC(C)CCC[C@@H](C)[C@H]1CC[C@H]2[C@@H]3CC=C4C[C@@H](NCCCCC(=O)NCCC(=O)N[C@@H](CCC(=O)O)C(=O)N[C@@H](CCC(=O)O)C(=O)NCCCCCC(=O)NCCCCCC(=O)N[C@@H](C)C(=O)N[C@@H](C)C(=O)N[C@@H](C)C(=O)N[C@@H](Cc5c[nH]c6ccccc56)C(=O)N[C@@H](Cc5c[nH]c6ccccc56)C(=O)N[C@@H](C)C(=O)N[C@@H](Cc5ccc(O)cc5)C(=O)N[C@@H](Cc5c[nH]c6ccccc56)C(=O)N5CCC[C@H]5C(=O)N5CCC[C@H]5C(=O)N[C@H](C(=O)N[C@@H](C)C(N)=O)C(C)C)CC[C@]4(C)[C@H]3CC[C@]12C [Compound 8, R = BEEXXAAAWWAYWPPVA-CONH2] ({Pentanoyl(5-NH-cholesteryl)-βAla}-EE[Ahx][Ahx]AAAWWAYWPPVA-NH2)
- EC50 ([1]; 14 h): 0.4 µM
- IC50 [2]: 9 µM

Compound: CC(C)CCC[C@@H](C)[C@H]1CC[C@H]2[C@@H]3CC=C4C[C@@H](NCCCCC(=O)NCCC(=O)N[C@@H](CCC(=O)O)C(=O)N[C@@H](CCC(=O)O)C(=O)NCCCCCC(=O)NC(C)(C)C(=O)NC(C)(C)C(=O)N[C@@H](Cc5c[nH]c6ccccc56)C(=O)N[C@@H](Cc5c[nH]c6ccccc56)C(=O)N[C@@H](C)C(=O)N[C@@H](Cc5ccc(O)cc5)C(=O)N[C@@H](Cc5c[nH]c6ccccc56)C(=O)N5CCC[C@H]5C(=O)N5CCC[C@H]5C(=O)N[C@H](C(=O)N[C@@H](C)C(N)=O)C(C)C)CC[C@]4(C)[C@H]3CC[C@]12C [Compound 10, R = BEEXUUWWAYWPPVA-CONH2] ({Pentanoyl(5-NH-cholesteryl)-βAla}-EE[Ahx][Aib][Aib]WWAYWPPVA-NH2)
- EC50 ([1]; 14 h): 0.9 µM
- IC50 [2]: 15 µM

Compound: CC(C)CCC[C@@H](C)[C@H]1CC[C@H]2[C@@H]3CC=C4C[C@@H](NCCCCC(=O)NCCC(=O)N[C@@H](CCC(=O)O)C(=O)N[C@@H](CCC(=O)O)C(=O)NCCCCCC(=O)NC(C)(C)C(=O)NC(C)(C)C(=O)NC(C)(C)C(=O)N[C@@H](Cc5c[nH]c6ccccc56)C(=O)N[C@@H](Cc5c[nH]c6ccccc56)C(=O)N[C@@H](C)C(=O)N[C@@H](Cc5ccc(O)cc5)C(=O)N[C@@H](Cc5c[nH]c6ccccc56)C(=O)N5CCC[C@H]5C(=O)N5CCC[C@H]5C(=O)N[C@H](C(N)=O)C(C)C)CC[C@]4(C)[C@H]3CC[C@]12C [Compound 11, R = BEEXUUUWWAYWPPV-CONH2] ({Pentanoyl(5-NH-cholesteryl)-βAla}-EE[Ahx][Aib][Aib][Aib]WWAYWPPV-NH2)
- EC50 ([1]; 14 h): 0.8 µM
- IC50 [2]: 15 µM

Compound: CC(C)CCC[C@@H](C)[C@H]1CC[C@H]2[C@@H]3CC=C4C[C@@H](NCCCCC(=O)NCCC(=O)N[C@@H](CCC(=O)O)C(=O)N[C@@H](CCC(=O)O)C(=O)NCCCCCC(=O)NC(C)(C)C(=O)NC(C)(C)C(=O)NC(C)(C)C(=O)N[C@@H](C)C(=O)N[C@@H](Cc5c[nH]c6ccccc56)C(=O)N[C@@H](C)C(=O)N[C@@H](Cc5ccc(O)cc5)C(=O)N[C@@H](Cc5c[nH]c6ccccc56)C(=O)N5CCC[C@H]5C(=O)N5CCC[C@H]5C(=O)N[C@H](C(=O)N[C@@H](C)C(N)=O)C(C)C)CC[C@]4(C)[C@H]3CC[C@]12C [Compound 12, R = BEEXUUUAWAYWPPVA-CONH2] ({Pentanoyl(5-NH-cholesteryl)-βAla}-EE[Ahx][Aib][Aib][Aib]AWAYWPPVA-NH2)
- EC50 ([1]; 14 h): 0.4 µM
- IC50 [2]: 14 µM

Compound: CC(C)CCC[C@@H](C)[C@H]1CC[C@H]2[C@@H]3CC=C4C[C@@H](NCCCCC(=O)NCCC(=O)N[C@@H](CCC(=O)O)C(=O)N[C@@H](CCC(=O)O)C(=O)NCCCCCC(=O)NC(C)(C)C(=O)NC(C)(C)C(=O)NC(C)(C)C(=O)N[C@@H](Cc5c[nH]c6ccccc56)C(=O)N[C@@H](C)C(=O)N[C@@H](C)C(=O)N[C@@H](Cc5ccc(O)cc5)C(=O)N[C@@H](Cc5c[nH]c6ccccc56)C(=O)N5CCC[C@H]5C(=O)N5CCC[C@H]5C(=O)N[C@H](C(=O)N[C@@H](C)C(N)=O)C(C)C)CC[C@]4(C)[C@H]3CC[C@]12C [Compound 13, R = BEEXUUUWAAYWPPVA-CONH2] ({Pentanoyl(5-NH-cholesteryl)-βAla}-EE[Ahx][Aib][Aib][Aib]WAAYWPPVA-NH2)
- EC50 ([1]; 14 h): 0.7 µM
- IC50 [2]: 16 µM

Compound: CC(C)CCC[C@@H](C)[C@H]1CC[C@H]2[C@@H]3CC=C4C[C@@H](NCCCCC(=O)NCCC(=O)N[C@@H](CCC(=O)O)C(=O)N[C@@H](CCC(=O)O)C(=O)NCCCCCC(=O)NC(C)(C)C(=O)NC(C)(C)C(=O)NC(C)(C)C(=O)N[C@@H](Cc5c[nH]c6ccccc56)C(=O)N[C@@H](Cc5c[nH]c6ccccc56)C(=O)N[C@@H](C)C(=O)N[C@@H](Cc5c[nH]c6ccccc56)C(=O)N[C@@H](Cc5c[nH]c6ccccc56)C(=O)N5CCC[C@H]5C(=O)N5CCC[C@H]5C(=O)N[C@H](C(=O)N[C@@H](C)C(N)=O)C(C)C)CC[C@]4(C)[C@H]3CC[C@]12C [Compound 19, R = BEEXUUUWWAWWPPVA-CONH2] ({Pentanoyl(5-NH-cholesteryl)-βAla}-EE[Ahx][Aib][Aib][Aib]WWAWWPPVA-NH2)
- EC50 ([1]; 14 h): 1 µM
- IC50 [2]: 20 µM

Compound: CC(C)[C@H](NC(=O)[C@@H](NC(=O)[C@@H]1CCCN1C(=O)[C@H](C)NC(=O)[C@H](Cc1c[nH]c2ccccc12)NC(=O)[C@H](Cc1ccc(O)cc1)NC(=O)[C@H](C)NC(=O)[C@H](Cc1c[nH]c2ccccc12)NC(=O)[C@H](Cc1c[nH]c2ccccc12)NC(=O)C(C)(C)NC(=O)C(C)(C)NC(=O)C(C)(C)NC(=O)C(C)(C)N)C(C)C)C(N)=O [Compound 49] (H-[Aib][Aib][Aib][Aib]WWAYWAPVV-NH2)
- solubility thermodynamic at 24 h [3, 4]: 21 ± 2 µM (≈ 31.9 µg/mL)
- Efficacy (% of max. 1) ([1]; Table 1, 14 hours): 45%
- Efficacy (% of 1) ([1]; Table 2, 14 h): 35 ± 2%
- EC50 ([1]; read-out: Potency (EC50), Table 1, Jurkat lymphocytes, probe Compound 2 (2.5 μM), 14 hours, 95% confidence interval in neighbouring cell): 12 µM

Compound: CC(C)[C@H](NC(=O)[C@@H](NC(=O)[C@H](C)NC(=O)[C@@H]1CCCN1C(=O)[C@H](Cc1c[nH]c2ccccc12)NC(=O)[C@H](Cc1ccc(O)cc1)NC(=O)[C@H](C)NC(=O)[C@H](Cc1c[nH]c2ccccc12)NC(=O)[C@H](Cc1c[nH]c2ccccc12)NC(=O)C(C)(C)NC(=O)C(C)(C)NC(=O)C(C)(C)NC(=O)C(C)(C)N)C(C)C)C(N)=O [Compound 50] (H-[Aib][Aib][Aib][Aib]WWAYWPAVV-NH2)
- solubility thermodynamic at 24 h [3, 4]: 22 ± 2 µM (≈ 33.4 µg/mL)
- Endosome disruption activity (in words) [1]: substantial activity
- Efficacy (% of max. 1) ([1]; Table 1, 14 hours): 71%
- Efficacy (% of 1) ([1]; Table 2, 14 h): 54 ± 3%
- EC50 [1, 5]: 9 ± 3 µM

- solubility thermodynamic at 24 h [3, 4]: 48 ± 3 µM (≈ 72.7 µg/mL)
- EC50 [1, 5]: > 15 µM
Compound: CC(C)[C@H](NC(=O)[C@H](C)NC(=O)[C@@H]1CCCN1C(=O)[C@@H]1CCCN1C(=O)[C@H](Cc1c[nH]c2ccccc12)NC(=O)[C@H](Cc1ccc(O)cc1)NC(=O)[C@H](C)NC(=O)[C@H](Cc1c[nH]c2ccccc12)NC(=O)[C@H](Cc1c[nH]c2ccccc12)NC(=O)C(C)(C)NC(=O)C(C)(C)NC(=O)C(C)(C)NC(=O)C(C)(C)N)C(N)=O [Compound 51] (H-[Aib][Aib][Aib][Aib]WWAYWPPAV-NH2)
- Efficacy (% of max. 1) ([1]; Table 1, 14 hours): <50%

- solubility thermodynamic at 24 h [3, 4]: 41 ± 2 µM
- EC50 [1, 5]: > 15 µM
Compound: Ac-AAAWWAYWPPVA-NH2 [Compound 40]
- Efficacy (% of max. 1) ([1]; Table 1, 14 hours): <<50%

- solubility thermodynamic at 24 h ([3]; pH 7.4, Table 1, PBS pH 7.4, 24 hours at 22° C., ±S.D., read-out: Solubility (aq.)): 173 ± 11 µM
- solubility thermodynamic at 24 h [3, 4]: 137 ± 8 µM
Compound: Ac-SSAWWSYWPPVA-NH2 [Compound 39, reference compound]
- Endosome disruption activity (in words) [1]: devoid of biological activity
- Efficacy (% of max. 1) ([1]; Table 1, 14 hours): <<50%
- Efficacy (% of 1) ([1]; Table 2, 14 h): <2%
